Data published in patent publication US8173788B2, “Peptide having ability to activate cancer-related gene” (priority 2005, dated 2012).
Where no end group is shown, it is not given here.

What was measured:
Kidney mesangium cell = assay: RT-PCR gene pattern change after 7 hr peptide treatment, kidney mesangium cell; format: cell-based; conditions: 11-amino acid primer (full sequence), kidney mesangium sample
Description: (§1) In order to examine influences at a gene level of the peptide on normal cells, RT-PCR was performed by adding the peptide artificially synthesized in Example 3 to the normal cells.
(§2) (1) Normal cells were treated with the artificially synthesized peptide for 7 hr as follows:
(§3) Then, total RNA was extracted from the above-treated normal cells, untreated normal cells, and squamous-cell carcinoma cells by using an RNA extraction kit (QIAGEN). The numbers of the treated cells and the untreated cells were the same.
(§4) Reverse transcription was performed by using 30 μg of each extracted total RNA to generate cDNA pools.
(§5) PCR was conducted using each of the cDNA pools as templates.
(§6) The condition for the PCR was as follows:
(§7) (2) Each of the PCR products was applied to electrophoresis and detected by using a fluorescence label.

[1] = test system: rejection in skin transplantation; assay: Skin transplantation test, C57Black/6N skin to back of BALB/c mouse; format: in vivo; conditions: 50 μg peptide/0.1 ml/mouse subcutaneously
Description: Then, the cellular immunity-inhibition activity of the peptide was examined from the viewpoint of activity for preventing rejection in skin transplantation.
The peptide of the present invention was administered to mice who have received skin transplantation according to the schedule shown in Table 6.

[2] = test system: Pancreatic epithelial cells; assay: RT-PCR gene pattern change after 7 hr peptide treatment, pancreatic epithelial cells; format: cell-based; conditions: pancreatic epithelial sample
Description: as §1, §2, §3, §4, §5, §6, §7

Normal lymphocytes = assay: Exhaustive gene analysis of 55000 genes by DNA chip system (Codelink System); format: cell-based; conditions: normal lymphocytes treated vs untreated, Codelink slide 55000 genes
Description: Characteristics of the peptide of the present invention were clarified by conducting the analysis described below in order to examine effects of the peptide on gene expression of normal cells.
Normal lymphocytes were treated with the peptide of the present invention as in Examples 4 and 5, and the gene expression was compared to that of untreated lymphocytes by using a DNA chip system (Codelink System). In this examination, cRNA derived from bacteria was used as a positive control. Total RNA was extracted by using the QIAGEN RNA extraction kit used in Example 5. The total RNA (5 to 10 μg) was subjected to reverse transcription using an oligo-dT primer having a T7 RNA polymerase promoter region as a reverse primer to generate a pool of cDNAs complementary to the mRNAs. The condition for the reverse transcription was the same as that in Example 5. […] The amount of the cRNA was measured with a spectrophotometer to confirm at least 10 μg of the cRNA. […]
The hybridization chamber was removed and the plate was washed at 46° C. for 1 hr. The hybridization was detected with Cy5-streptavidin (1:500 dilution, at room temperature for 30 min). […]
(5) The result was analyzed by exclusive software for the Codelink analysis. […]

[3] = test system: human normal peripheral blood monocyte; assay: Influence of the artificially synthesized peptide on normal cell genes: coculture 7 hr, DNA chip system (Clontech), about 55000 human genes (Table 4); format: cell-based; conditions: monocytes, 7 hr
Description: (a) The peptide obtained in Example 3 was added to a human normal peripheral blood monocyte culture system (10 to 100 μg peptide/1×10^6 to 1×10^7 monocytes), and they were cocultured for 7 hr. Then, mRNA was extracted from the monocytes and was applied to analysis for up-regulation and down-regulation in respect to about 55000 human genes by using DNA chip system (Clontech).

[4] = test system: peripheral blood monocytes; assay: RT-PCR gene pattern change after 7 hr peptide treatment, peripheral blood monocytes; format: cell-based, human
Description: as §1, §2, §3, §4, §5, §6, §7

[5] = test system: peripheral blood monocytes; assay: Effect of the artificially synthesized peptide on total mRNA amount of peripheral blood monocytes; format: cell-based, human; design: reduction ratio: concentration or dose not given beside the values; conditions: peptide 7 hr; for post total RNA: 1 × 10^7 monocytes
Description: (b) The peptide obtained in Example 3 was added to a culture medium (10 to 100 μg peptide/1×10^7 monocytes) for human normal peripheral blood monocytes extracted from subjects shown in Table 5 below, and they were cocultured for 7 hr. Then, total mRNA was extracted from the monocytes, and the amount of the total mRNA was measured and compared to that of the total mRNA before the treatment with the peptide.

Skin fibroblast cell = assay: RT-PCR gene pattern change after 7 hr peptide treatment, skin fibroblast cell; format: cell-based; conditions: 11-amino acid primer (full sequence), skin fibroblast sample
Description: as §1, §2, §3, §4, §5, §6, §7

[6] = subject eight, healthy subject (smoker)
[7] = subject five, healthy subject (side-stream smoke)
[8] = subject four, cancer patient received chemotherapy and radiotherapy
[9] = subject one, healthy subject (side-stream smoke)
[10] = subject seven, healthy subject (smoker)
[11] = subject two, healthy subject (side-stream smoke)

QPQFGRRMESK [artificially synthesized peptide]
gene band pattern by PCR before and after peptide treatment (Kidney mesangium cell): a difference in a position having a high concentration was observed
delay of skin rejection versus control ([1]; intermittent): 5 days
rejection in skin transplantation / skin graft survival ([1]; intermittent): the rejection in the skin transplantation was suppressed and skin graft survival was prolonged
skin rejection occurred, days after the transplantation ([1]; intermittent, 6 mice, control 7 days): 12 days
survival of the transplanted skin of one mouse after the transplantation ([1]; one mouse): 14 days
gene band pattern by PCR before and after peptide treatment ([2]; 7-amino acid primer (partial sequence)): a difference in the band patterns was observed
gene band pattern by PCR before and after peptide treatment ([2]; 11-amino acid primer (full sequence)): a difference in a position having a high concentration was observed
expression status of cancer-related genes (Normal lymphocytes): Cancer-inducing expression status of cancer-related genes was observed
Expression of TNF [3]: not enhanced
expression of cell growth factor such as a platelet-derived growth factor [3]: enhanced
expression of genes relating to anti-tumor immunity [3]: highly suppressed
expression of most of important factors as an operating factor for the humoral immunity mechanism [3]: enhanced
Expression of a gene relating to inhibition of metastasis of breast cancer, suppressed to ([3]; fraction of baseline): 1/60
expression of RAS suppressor protein gene, suppressed to ([3]; fraction of baseline): 1/43
expression of a gene relating to inhibition of leukemia, suppressed to ([3]; fraction of baseline): 1/43
gene band pattern by PCR before and after peptide treatment ([4]; 11-amino acid primer (full sequence), peripheral blood sample (H.S.), 7 hr): a difference in the band patterns was observed
gene pattern change by PCR after peptide treatment ([4]; 11-amino acid primer, sample of lanes 2 and 3 of FIG. 2B, healthy young man in twenties): gene mutation was hardly induced
post total RNA ([5]; subject eight, healthy subject (smoker), pre 45.875 μg/ml): 0.958 µg/mL
post/pre [5, 6]: 2%
reduction ratio [5, 6]: 98%
post total RNA ([5]; subject five, healthy subject (side-stream smoke), pre 58.076 μg/ml): 19.551 µg/mL
post/pre [5, 7]: 33.6%
reduction ratio [5, 7]: 66.4%
post total RNA ([5]; subject four, cancer patient received chemotherapy and radiotherapy, pre 8.078 μg/ml): 1.757 µg/mL
post/pre [5, 8]: 21.7%
reduction ratio [5, 8]: 78.3%
post total RNA ([5]; subject one, healthy subject (side-stream smoke), pre 69.622 μg/ml): 7.735 µg/mL
post/pre [5, 9]: 11.1%
reduction ratio [5, 9]: 88.9%
post total RNA ([5]; subject seven, healthy subject (smoker), pre 20.779 μg/ml): 9.188 µg/mL
post/pre [5, 10]: 44.2%
reduction ratio [5, 10]: 55.8%
post total RNA ([5]; subject six, healthy subject, pre 52.318 μg/ml): 17.681 µg/mL
post/pre ([5]; subject six, healthy subject): 33.7%
reduction ratio ([5]; subject six, healthy subject): 66.3%
post total RNA ([5]; subject three, healthy subject, pre 61.145 μg/ml): 16.562 µg/mL
post/pre ([5]; subject three, healthy subject): 27%
reduction ratio ([5]; subject three, healthy subject): 73%
post total RNA ([5]; subject two, healthy subject (side-stream smoke), pre 66.804 μg/ml): 14.742 µg/mL
post/pre [5, 11]: 22%
reduction ratio [5, 11]: 78%
gene band pattern by PCR before and after peptide treatment (Skin fibroblast cell): a difference in the band patterns was observed
